{"source": "patent US20240140970A1", "about": "“A […], AND PREPARATION METHOD AND USE THEREOF” (ASCENTAWITS PHARMACEUTICALS, LTD., priority 2021, published 2024)", "assay": "Experimental table stability of AST-2660 in human urine at room temperature (LC-MS/MS)", "type": "in vitro ADME", "settings": "for RE (%) vs nominal / AST-2660 concentration, Mean value / AST-2660 concentration, single replicates: human urine, room temperature", "experimental": "The detection method established in example 6 was used to detect the content of AST-2660 in the human urine to be tested.\nMatrix: the mixed normal human urine containing an additive Na2HPO4·12H2O. • a: the internal standard working solution: AST-2660-D8 was taken, dissolved with methanol, and diluted to prepare a solution containing about 100 ng per 1 ml. • b: the solution to be tested (no internal standard compound was added to the solution to be tested at this time): it was obtained by taking a blood sample to be tested. • c: the standard working solution (no internal standard compound was added to the standard working solution at this time): an appropriate amount of AST-2660 was taken and accurately weighed, dissolved with methanol and diluted to prepare a solution containing about 1.0 mg per 1 ml, which was used as the standard working stock solution. An appropriate amount of the standard working stock solution was taken, added with the matrix and diluted to prepare standard working solutions with different concentrations containing about 200 ng, 160 ng, 100 ng, 50 ng, 10 ng, 2.0 ng, 1.0 ng and 0.5 ng per 1 ml, respectively. (The solution was stored at −70° C.) • d: the quality control sample solution: an appropriate amount of AST-2660 was taken and accurately weighed, dissolved with methanol, and diluted to prepare a solution containing about 10 μg per 1 ml, which was used as the quality control working stock solution. An appropriate amount of the quality control working stock solution was taken, and added with the matrix to prepare quality control working solutions with different concentrations containing about 150 ng, 60 ng, 15 ng, 1.5 ng and 0.5 ng per 1 ml. (The solution was stored at −70° C.)\nThe solution to be tested, the standard working solution and the quality control sample solution were thawed at room temperature and mixed uniformly. 100 μl of the above solution was respectively taken, added with 20 μl of the internal standard and 500 μl of methanol, and vortexed for 3 minutes to mix uniformly, and then centrifuged for 30 minutes at 2143 rcf. 450 μl of supernatant was taken, and then centrifuged for 10 minutes in a 96-well plate at 2143 rcf. It was obtained by taking 300 μl of supernatant.\nLiquid phase conditions: A SHARC 1, 3 μm, 2.1*50 mm or chromatograph column with equivalent performance was used; methanol solution containing low content of ammonium acetate was used; mobile phase B was acetonitrile; the gradient elution was performed according to the following table; column temperature: 20° C.; injection volume: 5 μl.\nMass spectrometric conditions: electrospray ion source with negative ion scanning mode; spray potential: −4500 V; ion source temperature: 500° C.; collision energy (CE): −22 eV; declustering potential (DP): −55V; entrance potential (EP): −10V; collision chamber exit potential (CXP): −16V; dwell time: 100 ms; high purity nitrogen was used for all gases; AST-2660 ions pairs: m/z 147.0→m/z 62.9; the internal standard AST-2660-D8 ion pairs: m/z 155.0→m/z 62.9.\nThe AST-2660 standard working solution, blank sample, zero concentration sample, solution to be tested and quality control working solution with different concentrations after extraction were respectively taken and injected into LC-MS/MS for detection.\nCalculation results: the relationship function y=f (x) of the ratio of the peak area of AST-2660 to that of the internal standard was obtained from AST-2660 standard working solutions with different concentrations. The ratio of the peak area of AST-2660 to that of the internal standard was determined from the solution to be tested after extraction, and substituted into the relationship function y=f (x) to calculate the concentration of the metabolite II in the solution to be tested.", "key": {"[1]": {"settings": "QC1 nominal 1.50 ng/ml, 4 hours"}, "[2]": {"settings": "QC1 nominal 1.50 ng/ml, 24 hours"}, "[3]": {"settings": "QC4 nominal 150 ng/ml, 24 hours"}}, "note": "Values joined by “and” are separate entries in the source; they are usually repeats but may differ in a detail not shown here. Equal values may be shown once."}
{"molecule": "O=P([O-])(N1CC1)N1CC1.[Na+]", "note": "[AST-2660]", "values": [{"measurement": "RE (accuracy), range over three concentration levels", "setting": "human urine at room temperature for 4 hours, 1.5, 150 and 1500 ng/ml", "result": "RE: −8.5% to 4.5%"}, {"measurement": "RE (%) vs nominal", "setting": "DilQC (10-fold dilution) nominal 1500 ng/ml, 0 hour", "result": "−5.7", "unit": "%"}, {"measurement": "RE (%) vs nominal", "setting": "DilQC (10-fold dilution) nominal 1500 ng/ml, 4 hours", "result": "−5.7", "unit": "%"}, {"measurement": "RE (%) vs nominal", "setting": "DilQC (10-fold dilution) nominal 1500 ng/ml, 24 hours", "result": "−13.2", "unit": "%"}, {"measurement": "AST-2660 concentration, Mean value", "setting": "QC1 nominal 1.50 ng/ml, 0 hour", "result": 1.37, "unit": "ng/mL"}, {"measurement": "AST-2660 concentration, single replicates", "setting": "QC1 nominal 1.50 ng/ml, 0 hour", "result": 1.44, "unit": "ng/mL"}, {"measurement": "RE (%) vs nominal", "setting": "QC1 nominal 1.50 ng/ml, 0 hour", "result": "−8.5", "unit": "%"}, {"measurement": "AST-2660 concentration, Mean value", "setting": "[1]", "result": 1.45, "unit": "ng/mL"}, {"measurement": "AST-2660 concentration, single replicates", "setting": "[1]", "result": 1.51, "unit": "ng/mL"}, {"measurement": "RE (%) vs nominal", "setting": "[1]", "result": "−3.7", "unit": "%"}, {"measurement": "AST-2660 concentration, Mean value", "setting": "[2]", "result": 1.90, "unit": "ng/mL"}, {"measurement": "AST-2660 concentration, single replicates", "setting": "[2]", "result": 2.07, "unit": "ng/mL"}, {"measurement": "RE (%) vs nominal", "setting": "[2]", "result": 26.7, "unit": "%"}, {"measurement": "AST-2660 concentration, single replicates", "setting": "QC4 nominal 150 ng/ml, 0 hour", "result": "141 ng/mL and 144 ng/mL and 142 ng/mL and 146 ng/mL"}, {"measurement": "RE (%) vs nominal", "setting": "QC4 nominal 150 ng/ml, 0 hour", "result": "−4.5", "unit": "%"}, {"measurement": "AST-2660 concentration, single replicates", "setting": "QC4 nominal 150 ng/ml, 4 hours", "result": "156 ng/mL and 154 ng/mL and 159 ng/mL"}, {"measurement": "RE (%) vs nominal", "setting": "QC4 nominal 150 ng/ml, 4 hours", "result": 4.5, "unit": "%"}, {"measurement": "AST-2660 concentration, single replicates", "setting": "[3]", "result": "149 ng/ml (2×) and 154 ng/ml"}, {"measurement": "RE (%) vs nominal", "setting": "[3]", "result": 0.8, "unit": "%"}, {"measurement": "stability (in words)", "setting": "untreated human urine samples, 24 hours at room temperature", "result": "stable"}]}
